Values quoted from earlier work in patent US20220287943A1, “METHOD FOR TREATING KERATIN MATERIAL, COMPRISING THE APPLICATION OF AN ORGANIC C1-C6-ALKOXY-SILANE AND AN AMINO ACID AND/OR AMINO ACID DERIVATIVE” (Henkel AG & Co. KGaA, priority 2019, published 2022).

Details: for solubility in water: about 25° C.

| solubility in water | solubility in water (in words) (at about 25° C.) | Structure (SMILES) |
| --- | --- | --- |
| more than 7 g/L | – | O=S(=O)([O-])c1ccc(N=Nc2c(O)ccc3ccccc23)cc1.[Na+] [Acid Orange 7, sodium salt of 4-[(2-hydroxy-1-naphthy)azo]lbenzene sulphonate] |
| about 2.5 g/L | – | Nc1cc(S(=O)(=O)[O-])cc2cc(S(=O)(=O)[O-])c(N=Nc3ccccc3)c(O)c12.[Na+].[Na+] [Acid Red 33, diantrium salt of 5-amino-4-hydroxy-3-(phenylazo)-naphthalene-2,7-disulphonate] |
| – | highly soluble in water | O=C([O-])C1=NN(c2ccc(S(=O)(=O)[O-])cc2)C(=O)C1N=Nc1ccc(S(=O)(=O)[O-])cc1.[Na+].[Na+].[Na+] (stereo not drawn) [Acid Yellow 23, trisodium salt of 4,5-dihydro-5-oxo-1-(4-sulfophenyl)-4-((4-sulfophenyl)azo)-1H-pyrazole-3-carboxylic acid] |
